Broadly, the IC50 is the concentration needed to halve the response being measured. A higher IC50 goes with a need for much substance.

One assay addresses T1, human GRP receptor (BB2) (Homo sapiens, UniProt P30550).
T1 construct: expressed in transfected cells; membranes prepared from the cells
Nature of the assay: BB2 binding assay ([125I][Tyr4]bombesin displacement, CHO-K1 membranes). The protocol:
(§1) In the following experiments, measurement of BB1 and BB2 binding was as follows. CHO-K1 cells stably expressing cloned human NMB (for (BB1 assay) and GRP receptors (for BB2 assay) were routinely grown in Ham's F12 culture medium supplemented with 10% foetal calf serum and 2 mM glutamine. For binding experiments, cells were harvested by trypsinization, and stored frozen at −70° C. in Ham's F12 culture medium containing 5% DMSO until required. On the day of use, cells were thawed rapidly, diluted with an excess of culture medium, and centrifuged for 5 minutes at 2000 g. Cells were resuspended in 50 mM Tris-HCl assay buffer (pH 7.4 at 21° C., containing 0.02% BSA, 40 μg/mL bacitracin, 2 μg/mL chymostatin, 4 μg/mL leupeptin, and 2 μM phosphoramidon), counted, and polytronned (setting 5, 10 sec) before centrifuging for 10 minutes at 28,000 g. The final pellet was resuspended in assay buffer to a final cell concentration of 1.5×10^5/mL. For binding assays, […] aliquots of membranes were incubated with [^125I][Tyr^4]bombesin (<0.1 nM) in the presence and absence of test compounds (final assay volume 250 μL) for 60 minutes and 90 minutes for NMB and GRP receptors, respectively. Nonspecific binding was defined by 1 μM bombesin. Assays were terminated by rapid filtration under vacuum onto Whatman GF/C filters presoaked in 0.2% PEI for >2 hours, and washed 50 mM Tris-HCl (pH 6.9 at 21° C.; 6×1 mL). Radioactivity bound was determined using a gamma counter.
(§2) All competition data was analysed using nonlinear regression utilizing iterative curve-plotting procedures in Prism® (GraphPad Software Inc., San Diego, USA). IC50 values were corrected to Ki values using the Cheng-Prusoff equation (Cheng Y., Prusoff W. H., Biochem. Pharmacol. 22: 3099-3108, 1973). obtained are listed in Table 1.

For another assay, the target named is T2, human NMB receptor (BB1) (Homo sapiens, UniProt P28336).
T2 construct: expressed in transfected cells; membranes prepared from the cells
T2 sequence (P28336 whole entry): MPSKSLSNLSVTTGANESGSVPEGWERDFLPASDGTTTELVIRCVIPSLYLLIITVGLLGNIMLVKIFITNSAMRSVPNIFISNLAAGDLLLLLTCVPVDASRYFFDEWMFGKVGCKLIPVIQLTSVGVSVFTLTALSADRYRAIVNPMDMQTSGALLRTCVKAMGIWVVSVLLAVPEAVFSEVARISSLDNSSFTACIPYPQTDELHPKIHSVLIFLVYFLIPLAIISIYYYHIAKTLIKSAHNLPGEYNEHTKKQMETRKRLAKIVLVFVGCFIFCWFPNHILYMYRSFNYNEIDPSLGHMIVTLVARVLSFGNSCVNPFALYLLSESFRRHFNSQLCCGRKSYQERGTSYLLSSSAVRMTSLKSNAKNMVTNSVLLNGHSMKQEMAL
Nature of the assay: BB1 binding assay ([125I][Tyr4]bombesin displacement, CHO-K1 membranes). How it is done:
as §1, §2

[1] abbreviates: second 'TABLE 4', N-terminal urethane derivatives of Intermediate III-7.
Where [2] appears, read: Table 3, N-acyl derivatives of Intermediate III-7.

Where two headings read alike, the source gives them in different places.

T1 sequence (P30550 whole entry): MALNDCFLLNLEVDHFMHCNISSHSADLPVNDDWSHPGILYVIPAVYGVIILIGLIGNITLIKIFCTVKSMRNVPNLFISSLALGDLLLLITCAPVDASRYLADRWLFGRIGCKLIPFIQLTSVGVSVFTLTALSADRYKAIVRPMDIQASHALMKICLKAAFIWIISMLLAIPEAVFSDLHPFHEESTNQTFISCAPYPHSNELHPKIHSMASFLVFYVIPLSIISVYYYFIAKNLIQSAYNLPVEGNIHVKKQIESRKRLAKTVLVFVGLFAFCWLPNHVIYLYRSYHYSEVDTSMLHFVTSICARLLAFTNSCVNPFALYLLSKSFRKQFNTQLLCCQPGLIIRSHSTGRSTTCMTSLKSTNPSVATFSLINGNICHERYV

Take `CCOc1cccc(COC(=O)N[C@@](C)(Cc2c[nH]c3ccccc23)C(=O)NCC2(c3ccccn3)CCCCC2)c1` [Example 102, {(S)-2-(1H-Indol-3-yl)-1-methyl-1-[(1-pyridin-2-yl-cyclohexylmethyl)-carbamoyl]-ethyl}-carbamic acid 3-ethoxy-benzyl ester]: the IC50 is greater than 10000 nM at human GRP receptor (BB2) (setting [1]) and 1060 nM at human NMB receptor (BB1) (setting [1]).

As to `C[C@@](Cc1c[nH]c2ccccc12)(NC(=O)OCc1ccc(Cl)cc1)C(=O)NCC1(c2ccccn2)CCCCC1` [Example 93, {(S)-2-(1H-Indol-3-yl)-1-methyl-1-[(1-pyridin-2-yl-cyclohexylmethyl)-carbamoyl]-ethyl}-carbamic acid 4-chloro-benzyl ester], the IC50 is greater than 10000 nM at human GRP receptor (BB2) (setting [1]) and 681 nM at human NMB receptor (BB1) (setting [1]).

`Cc1ccccc1C(=O)N[C@@](C)(Cc1c[nH]c2ccccc12)C(=O)NCC1(c2ccccn2)CCCCC1` [Example 47, N—{(S)-2-(1H-Indol-3-yl)-1-methyl-1-[(1-pyridin-2-yl-cyclohexylmethyl)-carbamoyl]-ethyl}-2-methyl-benzamide]: the IC50 on human GRP receptor (BB2) (setting [2]) was greater than 10000 nM; on human NMB receptor (BB1) (setting [2]), 3280 nM.

Turning to `COc1ccc(COC(=O)N[C@@](C)(Cc2c[nH]c3ccccc23)C(=O)NCC2(c3ccccn3)CCCCC2)cc1OC` [Example 88, {(S)-2-(1H-Indol-3-yl)-1-methyl-1-[(1-pyridin-2-yl-cyclohexylmethyl)-carbamoyl]-ethyl}-carbamic acid 3,4-dimethoxy-benzyl ester], the IC50 at human GRP receptor (BB2) (setting [1]) was greater than 10000 nM; at human NMB receptor (BB1) (setting [1]), 1760 nM.

Turning to `CC(C)(C)c1ccc(COC(=O)N[C@@](C)(Cc2c[nH]c3ccccc23)C(=O)NCC2(c3ccccn3)CCCCC2)cc1` [Example 98, {(S)-2-(1H-Indol-3-yl)-1-methyl-1-[(1-pyridin-2-yl-cyclohexylmethyl)-carbamoyl]-ethyl}-carbamic acid 4-tert-butyl-benzyl ester], the IC50 was greater than 10000 nM on human GRP receptor (BB2) (setting [1]) and 1990 nM on human NMB receptor (BB1) (setting [1]).

With `Cc1cccc(S(=O)(=O)N[C@@](C)(Cc2c[nH]c3ccccc23)C(=O)NCC2(c3ccccn3)CCCCC2)c1` [Example 131], the IC50 on human GRP receptor (BB2) was determined as 1020 nM; at human NMB receptor (BB1), 393 nM.

With `C[C@@](Cc1c[nH]c2ccccc12)(NC(=O)c1ccncc1)C(=O)NCC1(c2ccccn2)CCCCC1` [Example 58], the IC50 at human GRP receptor (BB2) (setting [2]) was greater than 10000 nM; at human NMB receptor (BB1) (setting [2]), 1360 nM.

`C[C@@](Cc1c[nH]c2ccccc12)(NC(=O)c1cc2ccccc2s1)C(=O)NCC1(c2ccccn2)CCCCC1` [Example 71, Benzo[b]thiophene-2-carboxylic acid {(S)-2-(1H-indol-3-yl)-1-methyl-1-[(1-pyridin-2-yl-cyclohexylmethyl)-carbamoyl]-ethyl}-amide]: the IC50 was greater than 10000 nM at human GRP receptor (BB2) (setting [2]) and 611 nM at human NMB receptor (BB1) (setting [2]).

Turning to `COc1ccc(C2(CNC(=O)[C@](C)(Cc3ccccc3)Nc3nc(-c4ccc([N+](=O)[O-])cc4)co3)CCCCC2)nc1` [Example 12, (S)-N-[1-(5-Methoxy-pyridin-2-yl)-cyclohexylmethyl]-2-methyl-2-[4-(4-nitro-phenyl)-oxazol-2-ylamino]-3-phenyl-propionamide], the Ki worked out at 2820 nM on human GRP receptor (BB2) (Table 1, human GRP receptor binding affinity, Ki from IC50 by Cheng-Prusoff, read-out: GRP Kj) and 16 nM on human NMB receptor (BB1) (Table 1, human NMB receptor binding affinity, Ki from IC50 by Cheng-Prusoff, read-out: NMB Ki).

Turning to `C[C@@](Cc1c[nH]c2ccccc12)(NS(=O)(=O)c1ccc(Cl)cc1)C(=O)NCC1(c2ccccn2)CCCCC1` [Example 116], the values for the IC50 on human GRP receptor (BB2) and at human NMB receptor (BB1) were 4390 nM and 373 nM, respectively.

As for `C[C@@](Cc1c[nH]c2ccccc12)(NC(=O)c1ccc(Cl)cc1)C(=O)NCC1(c2ccccn2)CCCCC1` [Example 34, 4-Chloro-N—{(S)-2-(1H-indol-3-yl)-1-methyl-1-[(1-pyridin-2-yl-cyclohexyl-methyl)-carbamoyl]-ethyl}-benzamide], the IC50 on human GRP receptor (BB2) (setting [2]) was greater than 10000 nM; on human NMB receptor (BB1) (setting [2]) it was 1350 nM.

With `C[C@@](Cc1c[nH]c2ccccc12)(NC(=O)OC1Cc2ccccc2C1)C(=O)NCC1(c2ccccn2)CCCCC1` [Example 90, {(S)-2-(1H-Indol-3-yl)-1-methyl-1-[(1-pyridin-2-yl-cyclohexylmethyl)-carbamoyl]-ethyl}-carbamic acid indan-2-yl ester], the IC50 on human GRP receptor (BB2) (setting [1]) was greater than 10000 nM; on human NMB receptor (BB1) (setting [1]), 955 nM.

Consider `C[C@@](Cc1c[nH]c2ccccc12)(NC(=O)OCc1ccccc1F)C(=O)NCC1(c2ccccn2)CCCCC1` [Example 94, {(S)-2-(1H-Indol-3-yl)-1-methyl-1-[(1-pyridin-2-yl-cyclohexylmethyl)-carbamoyl]-ethyl}-carbamic acid 2-fluoro-benzyl ester], for which the IC50 is greater than 10000 nM at human GRP receptor (BB2) (setting [1]) and 923 nM at human NMB receptor (BB1) (setting [1]).

Take `C[C@@](Cc1c[nH]c2ccccc12)(NC(=O)OCc1ccc(C(F)(F)F)cc1)C(=O)NCC1(c2ccccn2)CCCCC1` [Example 101, {(S)-2-(1H-Indol-3-yl)-1-methyl-1-[(1-pyridin-2-yl-cyclohexylmethyl)-carbamoyl]-ethyl}-carbamic acid 4-trifluoromethyl-benzyl ester]: the IC50 is greater than 10000 nM on human GRP receptor (BB2) (setting [1]) and 1100 nM at human NMB receptor (BB1) (setting [1]).

Turning to `C[C@@](Cc1c[nH]c2ccccc12)(NC(=O)c1cccc2cc[nH]c12)C(=O)NCC1(c2ccccn2)CCCCC1` [Example 69, 1H-Indole-7-carboxylic acid {(S)-2-(1H-indol-3-yl)-1-methyl-1-[(1-pyridin-2-yl-cyclohexylmethyl)-carbamoyl]-ethyl}-amide], the IC50 at human GRP receptor (BB2) (setting [2]) was greater than 10000 nM; at human NMB receptor (BB1) (setting [2]) it was 1370 nM.

In the case of `COc1ccc(C(=O)N[C@@](C)(Cc2c[nH]c3ccccc23)C(=O)NCC2(c3ccccn3)CCCCC2)cc1` [Example 35, N—{(S)-2-(1H-Indol-3-yl)-1-methyl-1-[(1-pyridin-2-yl-cyclohexylmethyl)-carbamoyl]-ethyl}-4-methoxy-benzamide], the IC50 at human GRP receptor (BB2) (setting [2]) is greater than 10000 nM; on human NMB receptor (BB1) (setting [2]), 2880 nM.

For the compound `C[C@@](Cc1c[nH]c2ccccc12)(NC(=O)OCc1cccc2ccccc12)C(=O)NCC1(c2ccccn2)CCCCC1` [Example 87, {(S)-2-(1H-Indol-3-yl)-1-methyl-1-[(1-pyridin-2-yl-cyclohexylmethyl)-carbamoyl]-ethyl}-carbamic acid naphthalen-1-ylmethyl ester], the IC50 at human GRP receptor (BB2) (setting [1]) is greater than 10000 nM; on human NMB receptor (BB1) (setting [1]), 239 nM.

On to `C[C@@](Cc1c[nH]c2ccccc12)(NC(=O)Cc1ccccc1F)C(=O)NCC1(c2ccccn2)CCCCC1` [Example 55, (S)-2-[2-(2-Fluoro-phenyl)-ethanoylamino]-3-(1H-indol-3-yl)-2-methyl-N-(1-pyridin-2-yl-cyclohexylmethyl)-propionamide], for which the values for the IC50 at human GRP receptor (BB2) (setting [2]) and at human NMB receptor (BB1) (setting [2]) were 1550 nM and 878 nM, respectively.

For the compound `C[C@@](Cc1c[nH]c2ccccc12)(NS(=O)(=O)c1ccc(F)cc1)C(=O)NCC1(c2ccccn2)CCCCC1` [Example 122], the IC50 at human GRP receptor (BB2) turned out to be 4160 nM; on human NMB receptor (BB1) it was 560 nM.

As to `C[C@@](Cc1c[nH]c2ccccc12)(NC(=O)Cc1ccc(O)cc1)C(=O)NCC1(c2ccccn2)CCCCC1` [Example 52, (S)-2-[2-(4-Hydroxy-phenyl)-ethanoylamino]-3-(1H-indol-3-yl)-2-methyl-N-(1-pyridin-2-yl-cyclohexylmethyl)-propionamide], the figures for the IC50 at human GRP receptor (BB2) (setting [2]) and at human NMB receptor (BB1) (setting [2]) were greater than 10000 nM and 3130 nM, respectively.

For `C[C@@](Cc1c[nH]c2ccccc12)(NS(=O)(=O)c1cccc(Cl)c1)C(=O)NCC1(c2ccccn2)CCCCC1` [Example 130], the IC50 at human GRP receptor (BB2) amounted to 2690 nM; on human NMB receptor (BB1), 331 nM.

As for `COc1ccccc1COC(=O)N[C@@](C)(Cc1c[nH]c2ccccc12)C(=O)NCC1(c2ccccn2)CCCCC1` [Example 100, {(S)-2-(1H-Indol-3-yl)-1-methyl-1-[(1-pyridin-2-yl-cyclohexylmethyl)-carbamoyl]-ethyl}-carbamic acid 2-methoxy-benzyl ester], the IC50 on human GRP receptor (BB2) (setting [1]) was greater than 10000 nM; on human NMB receptor (BB1) (setting [1]), 818 nM.

For the compound `COc1ccccc1CC(=O)N[C@@](C)(Cc1c[nH]c2ccccc12)C(=O)NCC1(c2ccccn2)CCCCC1` [Example 85, (S)-3-(1H-Indol-3-yl)-2-[2-(2-methoxy-phenyl)-ethanoylamino]-2-methyl-N-(1-pyridin-2-yl-cyclohexylmethyl)-propionamide], the IC50 on human GRP receptor (BB2) (setting [2]) came out at 2480 nM; at human NMB receptor (BB1) (setting [2]) it was 1330 nM.

In the case of `Cc1cccc(CC(=O)N[C@@](C)(Cc2c[nH]c3ccccc23)C(=O)NCC2(c3ccccn3)CCCCC2)c1` [Example 54, (S)-3-(1H-Indol-3-yl)-2-methyl-N-(1-pyridin-2-yl-cyclohexylmethyl)-2-(2-m-tolyl-ethanoylamino)-propionamide], the IC50 at human GRP receptor (BB2) (setting [2]) was greater than 10000 nM; on human NMB receptor (BB1) (setting [2]), 817 nM.

Values taken from patent US20020169101A1, “Treatment of sexual dysfunction” (priority 1999, published 2002).
